Source: patent publication US8802104B2, “Parathyroid hormone receptor activation and stem and progenitor cell expansion” (The General Hospital Corporation, priority 2002, dated 2014)

Legend:
[1] = PTH administration following myeloablation and bone marrow transplantation: survival; format: in vivo, C57Bl/6 mice; details: at 30 days; lethal irradiation, limiting numbers of donor bone marrow cells, pulse dosing of PTH after transplant; FIG. 6
Description: For the competitive transplant studies, 4×10^5 BM MNCs, obtained from CD45.1^+ B6.SJL (Jackson Laboratories, Bar Harbor, Me.) mice were mixed with 2×10^5 cells from mock injected or PTH injected CD45.2^+ C57Bl/6 mice. Recipient B6.SJL mice that had been lethally irradiated 24 hours previously with 10Gy of radiation (^137Cs source) were injected with cells. After 6 weeks, the mice were euthanized with CO2, the BM was removed and flushed with fully supplemented Iscove's Medium. The relative contribution of engraftment from the different cell sources was assessed by flow cytometry utilizing anti-CD45.1 and anti-CD45.2 antibodies (Pharmingen, San Diego, Calif.). To assess the effects of PTH administration post transplantation, recipient C57Bl/6 mice were lethally irradiated and then injected with 2×10^5 BM MNCs from a donor B6.SJL mouse. Twenty-four hours following the injection of the cells, mice were injected with PTH or mock injected as described above for four weeks.
Assessing whether PPR stimulation could affect models relevant to the clinical use of stem cells in humans, the impact of PTH administration on animals undergoing myeloablation and bone marrow transplantation was assessed. Limiting numbers of bone marrow derived donor cells were used to mimic a setting of therapeutic need. […]

[2] = system: primary murine stromal cell cultures; test: Alkaline phosphatase staining of primary stromal cell cultures; format: cell-based, mouse; details: after 14 days, PTH vs vehicle, FIG. 5b
Description: LTC-IC assays were performed using wild-type stroma and hematopoietic cells. Rat PTH (1-34) (Bachem, Torrance, Calif.) or vehicle was added to each media change either during stroma establishment and/or during culture maintenance to a final concentration of 10^−7 M. Medium was changed every three days for two weeks or until stromal layers became confluent. For alkaline phosphatase staining, primary mononuclear cells obtained as described above from wild-type and or transgenic littermates were then cultured in 24-well plates at an initial concentration of 5×10^6 cells/ml. At 10 or 14 days after seeding, medium was suctioned off, and the adherent cells were gently rinsed twice in PBS. After fixation in 10% Neutral Formalin Buffer for 30 minutes at room temperature, alkaline phosphatase activity was determined histochemically by incubation for 45 minutes at RT with a mixture of 0.1 mg/ml naphthol AS-MX phosphate (Sigma), 0.5% N,N-dimethylformamide, 0.6 mg/ml red violet LB salt (Sigma) in 0.1 M Tris-HCl (pH 8.5). Alkaline phosphatase positive cells were counted at day 10 of culture, when the cultures were subconfluent and individual cells could be identified. For inhibition of γ-secretase activity, 30 μM of γ-secretase inhibitor II (Calbiochem) dissolved in DMSO was added to the long-term culture medium and LTC-IC assays were performed as described. […]

[3] = system: hematopoietic stem cells (LTC-ICs) in the bone marrow; test: In vivo PTH administration: LTC-IC frequency in bone marrow; parameters: species or system C57Bl/6 mice
Description: Murine bone marrow stromal cells from confluent cultures were irradiated (15Gy) and plated at a concentration of 20,000 cells/well in 96-well plates in long-term culture medium. Cells were then seeded into the plates in two-fold serial limiting dilutions and cultured at 33° C./5% CO2 in a humidified atmosphere. Cultures were maintained for 5 weeks, changing half of the medium in the wells weekly. Following this, the medium was replaced with methylcellulose containing medium supplemented with recombinant cytokines as described above, then scored for colony growth ten days following the addition of the medium.
For PTH administration, 6-8 week old wild type C57/B male mice were used. […] Control mice (n=4) were injected with an equivalent volume of vehicle. At the end of the treatment period, ionized serum calcium was measured by the Ciba/Corning 634 Ca^++/pH analyzer, and, after euthanasia, the hind limbs and forelimbs were dissected and utilized for cytologic and histologic analysis.
As treatment of stromal cells with PTH led to an increase in the ability of the stromal cell population to support hematopoietic stem cells, it was investigated whether these effects could be recapitulated in vivo. Wild-type C57Bl/6 mice were injected daily with PTH using an intermittent dosing schedule known to increase osteoblasts, and the frequencies of LTC-ICs in the bone marrow were measured. […] To further define that functional stem cells were increased after PTH treatment, an in vivo assay of competitive transplantation into secondary recipients was used and a >2-fold increase in HSCs was documented (P=<0.05, FIG. 5f). […] Therefore, pharmacological activation of PPR increased stem cell number, but appeared to do so without a broad hematopoietic cell expansion.

[4] = system: hematopoietic progenitors (CFU-C); test: In vivo PTH administration: CFU-C assay; parameters: species or system C57Bl/6 mice; details: four weeks PTH; P=0.780, FIG. 5g
Description: Mononuclear cells were isolated from the bone marrow and cultured at 10^4 cells/ml in the following medium: 0.9% methylcellulose, 15% FBS, 1% BSA, 10 μg/ml rh insulin, 200 μg/ml human transferrin, 10^−4 M 2-mercaptoethanol, 2 mM L-glutamine, 50 ng/ml rmSCF, 10 ng/ml rmIL-3, 10 ng/ml rhIL-6 and 3 units/ml rhEpo (M3434; Stem Cell Technologies, Vancouver, Canada). At day 10, the total number of colonies were counted and reported as total CFU-Cs.
For PTH administration, 6-8 week old wild type C57/B male mice were used. Rat PTH (1-34) (80 μg/Kg of body weight) was injected intraperitoneally 5×/week for 4 weeks (n=5). Control mice (n=4) were injected with an equivalent volume of vehicle. At the end of the treatment period, ionized serum calcium was measured by the Ciba/Corning 634 Ca^++/pH analyzer, and, after euthanasia, the hind limbs and forelimbs were dissected and utilized for cytologic and histologic analysis.
As treatment of stromal cells with PTH led to an increase in the ability of the stromal cell population to support hematopoietic stem cells, it was investigated whether these effects could be recapitulated in vivo. Wild-type C57Bl/6 mice were injected daily with PTH using an intermittent dosing schedule known to increase osteoblasts, and the frequencies of LTC-ICs in the bone marrow were measured. […]

For Rat PTH (1-34), the survival [1] was 100%, the “alkaline phosphatase positive (osteoblastic) cells” value [2] was “an increase in alkaline positive cells” and the “hematopoietic stem cells over mock injected mice” value ([3]; four weeks PTH treatment, 80 μg/Kg i.p. 5x/week) was “significant increase in the hematopoietic stem cells”. For the same substance, the “limit dilution LTC-IC assay, stem-like cells” value ([3]; four weeks PTH, P<0.005, FIG. 5e) was “an increase in stem-like cells”, the “hematopoietic stem cell population (frequencies of LTC-ICs in the bone marrow)” value ([3]; two week PTH treatment, 80 μg/Kg i.p.) was “did not result in any significant increase” and the “level of hematopoietic progenitors by CFU-C assay” value [4] was “did not affect”.
